Tests used:
Assay type in all cases: in vivo
Alternaria solani = assay: Use Example 1: activity against early blight caused by Alternaria solani (tomato plants); conditions: 250 ppm, tomato plants sprayed one day before infection, rated after 5 days; untreated plants 90% infected
Puccinia recondita = assay: Use Example 5: curative activity against brown rust of wheat caused by Puccinia recondita; conditions: 250 ppm, wheat seedlings, curative (sprayed one day after inoculation), 7 days; untreated plants 90% infected
Protocol: (§1) For the use examples 1 to 5 the active compounds were prepared separately as a stock solution with 0.25% by weight of active compound in acetone or DMSO. 1% by weight of the emulsifier Wettol® EM 31 (wetting agent having emulsifying and dispersing action based on ethoxylated alkylphenols) was added to this solution, and the solution was diluted with water to the desired concentration.
Leaves of potted wheat seedlings of the cultivar “Kanzler” were inoculated with a spore suspension of brown rust (Puccinia recondita). The pots were then placed in a chamber at high atmospheric humidity (90 to 95%) and 20 to 22° C. for 24 hours. During this time, the spores germinated and the germ tubes penetrated into the leaf tissue. The next day, the infected plants were sprayed to runoff point with an aqueous suspension having the active compound concentration stated below. The suspension or emulsion had been prepared as described above. After the spray coating had dried, the test plants were cultivated in a greenhouse at temperatures between 20 and 22° C. and at 65 to 70% relative atmospheric humidity for 7 days. The extent of the rust fungus development on the leaves was then determined.

Botrytis cinerea = assay: Use Example 2: activity against gray mold on bell pepper leaves caused by Botrytis cinerea, protective application; conditions: 250 ppm, rated after 5 days, untreated plants 90% infected
Protocol: as §1
Bell pepper leaves of the cultiva “Neusiedler Ideal Elite” were, after 2 to 3 leaves had become well developed, sprayed to runoff point with an aqueous suspension having the concentration of active compounds stated below. The next day, the treated plants were inoculated with an aqueous spore suspension of Botrytis cinerea in a 2% aqueous biomalt solution having a density of 1.7×10^6 spores/ml. The plants were then placed in a climatized chamber at temperatures between 22 and 24° C. and at high atmospheric humidity. After 5 days, the extent of the fungal infection was determined visually by the infected leaf area.

Plasmopara viticola = assay: Use Example 4: activity against peronospora of grapevines caused by Plasmopara viticola; conditions: 63 ppm, potted grapevines, protective; untreated plants 90% infected
Protocol: as §1
Leaves of potted grapevines were sprayed to runoff point with an aqueous suspension having the concentration of active compounds stated below. The next day, the undersides of the leaves were inoculated with an aqueous sporangia suspension of Plasmopara viticola. The plants were then initially placed in a water-vapor-saturated chamber for 48 h and then in a greenhouse at temperatures between 20 and 30° C. After this period of time, the plants were, to promote sporangial eruption, again placed in the water-vapor-saturated chamber for 16 h. The extent of the development of the infection on the undersides of the leaves was then determined.

[1] = tested on: Erysiphe [syn. Blumeria] graminis forma specialis. tritici; assay: Use Example 3: activity against mildew of wheat caused by Erysiphe [syn. Blumeria] graminis forma specialis tritici; conditions: 250 ppm, wheat seedlings, protective, rated after 7 days; untreated plants 90% infected
Protocol: as §1
Leaves of potted wheat seedlings of the cultiva “Kanzler” were sprayed to runoff point with an aqueous suspension having the concentration of active compounds stated below. 24 h after the spray coating had dried on, the leaves were dusted with the spores of mildew of wheat (Erysiphe [syn. Blumeria] graminis form a specialis. tritici). The plants were then placed in a greenhouse at temperatures between 20 and 24° C. and at 60-90% relative atmospheric humidity. After 7 days, the extent of the fungal infection was determined visually by the infected leaf area.

Structure (SMILES)	infection (Alternaria solani)	infection (rust fungus development) (Puccinia recondita) [%]	infection (infected leaf area) (Botrytis cinerea)	infection (Plasmopara viticola)	infection (infected leaf area) [1] [%]
Cc1ccc(-c2ncc3c(n2)CCCCC3)nc1-c1ccc(F)cc1 [Example 9]	no infection	20	–	–	–
Cc1ccc(-c2ncc3c(n2)CCCCC3)nc1-c1ccccc1 [Example 1, 2-(5-methyl-6-phenylpyridin-2-yl)-6,7,8,9-tetrahydro-5H-cycloheptapyrimidine]	no infection	–	–	–	–
Fc1ccc(-c2cccc(-c3ncc4c(n3)CCCCC4)n2)cc1 [Example 7]	no infection	–	no infection	no infection	20
Cc1ccc(-c2ncc3c(n2)CCCCC3)nc1-c1ccccc1 [Example 6]	–	–	no infection	–	–
Cc1ccc(-c2ncc3c(n2)CCCC3)nc1-c1ccc(F)cc1 [2-(5-methyl-6-(4-fluorophenyl)pyridin-2-yl)-5,6,7,8-tetrahydroquinazoline, reference compound]	80%	50	–	70%	80
c1ccc(-c2cccc(-c3ncc4c(n3)CCCCCC4)n2)cc1 [Example 11]	no infection	–	no infection	–	–
